These are literature values, as cited in patent US20180116967A1, “EXTENDED RELEASE TABLET OF CYCLOBENZAPRINE” (SYNMOSA BIOPHARMA CORPORATION, priority 2015, published 2018).

The subject of the series is plasma protein.

As for `CN(C)CCC=C1c2ccccc2C=Cc2ccccc21` [cyclobenzaprine, 3-(5H-dibenzo[a,d]cyclohepten-5-ylidene)-N,N-dimethyl-1-propanamine], the “drug coupled to plasma protein” value was “About 93%”.
